Columns and labels:
MOR = MOR (Homo sapiens, UniProt P35372); assay: cell-based; parameters: expressed in transfected cells; host or cells: CHO-K1/MOR/Ga15 cells; conditions: read-out: FLIPR Ca2+ EC50
human NOP receptor = target: T1, human NOP receptor (Homo sapiens, UniProt P41146); assay: cAMP assay in CHO-K1 cells expressing human NOP (CHO-K1-NOP); type: cell-based; conditions: read-out: EC50 in decreasing the cAMP level
T1 construct: expressed in transfected cells; host or cells: CHO-K1 (CHO-K1-NOP)
Excerpt: In an exemplary in vitro assay for identifying NOP agonists, cells are engineered to overexpress NOP and are designed to detect changes in intracellular cAMP levels in response to agonist stimulation of the receptor. The enzyme donor-cAMP complex complements with the acceptor and forms an active enzyme. The active enzyme subsequently hydrolyzes a substrate to produce a chemiluminescent signal that is directly proportional to the amount of cAMP in the cells. These cells have thus been modified to work in an agonist mode.
(§1) Cells (72,000 per well) were plated in 100 μl/well of DMEM in 96-well solid-bottom white plates (GIBCO) and 50 μl/well of drug in HBSS in the presence of forskolin and 3-isobutyl-1-methylxanthine at final concentrations of 1 μM and 500 μM, respectively. After 30 min of incubation at room temperature, the concentration of cyclic adenosine monophosphate was determined using a LANCE Ultra cAMP Assay kit (PerkinElmer).
It was measured using the PathHunter enzyme complementation assay in CHO-K1 cells expressing human NOP (CHO-K1-NOP).

human mu-opioid receptor = target: T2, human mu-opioid receptor (Homo sapiens, UniProt P35372); assay: cell-based; type: cell-based
T2 construct: expressed in transfected cells; host or cells: HEK-293 (HEK-MOR), kept under G418
Protocol: as §1
As MOR belongs to the GPCR family, activation of MOR leads to a decrease in intracellular cAMP level.

T2 sequence (P35372 whole entry): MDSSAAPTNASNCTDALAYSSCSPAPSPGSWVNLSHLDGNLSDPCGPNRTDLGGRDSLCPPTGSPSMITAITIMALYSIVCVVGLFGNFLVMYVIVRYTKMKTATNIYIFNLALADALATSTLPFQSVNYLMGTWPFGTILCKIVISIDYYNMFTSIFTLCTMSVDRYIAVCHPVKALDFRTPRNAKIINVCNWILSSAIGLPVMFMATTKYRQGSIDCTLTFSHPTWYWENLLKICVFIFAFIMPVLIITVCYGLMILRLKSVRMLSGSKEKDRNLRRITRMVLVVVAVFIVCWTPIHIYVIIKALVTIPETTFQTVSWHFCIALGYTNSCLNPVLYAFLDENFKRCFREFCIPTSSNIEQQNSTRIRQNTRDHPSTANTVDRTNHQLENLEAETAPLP
Sequence of MOR (P35372 whole entry): as above
T1 sequence (P41146 whole entry): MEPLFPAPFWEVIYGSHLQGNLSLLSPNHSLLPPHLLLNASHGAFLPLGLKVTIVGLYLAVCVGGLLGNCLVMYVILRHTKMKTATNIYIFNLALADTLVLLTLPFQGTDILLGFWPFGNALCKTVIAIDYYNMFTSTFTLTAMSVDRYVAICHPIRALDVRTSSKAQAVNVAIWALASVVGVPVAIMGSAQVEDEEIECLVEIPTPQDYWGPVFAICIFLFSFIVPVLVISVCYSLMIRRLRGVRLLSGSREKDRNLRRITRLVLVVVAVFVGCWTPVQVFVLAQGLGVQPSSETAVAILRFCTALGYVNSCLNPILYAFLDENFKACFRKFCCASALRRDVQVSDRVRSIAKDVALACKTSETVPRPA

For `CN1CCc2ccccc2C1CNC(=O)c1ccc(Cl)c(Cl)c1` (stereo not shown) [Compound 67, 3,4-Dichloro-N-[(2-methyl-1,2,3,4-tetrahydro-1-isoquinolinyl)methyl]benzamide], the EC50 (MOR) was 10 nM, the EC50 (human NOP receptor) was 2.2 nM and the EC50 (human mu-opioid receptor) was 0.63 nM. The cAMP production (human mu-opioid receptor) was “significantly decreased cAMP production”.

From patent publication US10597378B2 (priority 2017, dated 2020)
